Experimental data taken from PubChem BioAssay (NCI).
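Cells were grown in 96-well plates and exposed to each compound for 48 hours at five concentrations; endpoints were interpolated linearly between bracketing concentrations, or set to the highest concentration if not reached. TGI: concentration producing complete growth inhibition.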

Columns and labels:
Experiment in all cases: DTP human tumour cell line panel, 48 h
HCT-116 colon = tested on: HCT-116 colon
OVCAR-3 ovarian = tested on: OVCAR-3 ovarian
DU-145 prostate = tested on: DU-145 prostate
NCI-H226 lung = tested on: NCI-H226 lung
SNB-75 CNS = tested on: SNB-75 CNS
HL-60(TB) leukemia = tested on: HL-60(TB) leukemia
UACC-257 melanoma = tested on: UACC-257 melanoma
SK-MEL-28 melanoma = tested on: SK-MEL-28 melanoma
NCI-H460 lung = tested on: NCI-H460 lung
IGROV1 ovarian = tested on: IGROV1 ovarian
786-0 renal = tested on: 786-0 renal
SW-620 colon = tested on: SW-620 colon
PC-3 prostate = tested on: PC-3 prostate
HOP-92 NSCLC = tested on: HOP-92 NSCLC
HS 578T breast = tested on: HS 578T breast
CCRF-CEM leukemia = tested on: CCRF-CEM leukemia
HOP-62 NSCLC = tested on: HOP-62 NSCLC
T-47D breast = tested on: T-47D breast
M14 melanoma = tested on: M14 melanoma
TK-10 renal = tested on: TK-10 renal
MDA-MB-231 breast = tested on: MDA-MB-231 breast
A498 renal = tested on: A498 renal
HCT-15 colon = tested on: HCT-15 colon
SR leukemia = tested on: SR leukemia
ACHN renal = tested on: ACHN renal
EKVX NSCLC = tested on: EKVX NSCLC
MDA-N = tested on: MDA-N
SF-295 CNS = tested on: SF-295 CNS
COLO 205 colon = tested on: COLO 205 colon
RXF 393 renal = tested on: RXF 393 renal
NCI/ADR-RES ovarian = tested on: NCI/ADR-RES ovarian
OVCAR-8 ovarian = tested on: OVCAR-8 ovarian
SK-OV-3 ovarian = tested on: SK-OV-3 ovarian
SF-268 CNS = tested on: SF-268 CNS
MCF7 breast = tested on: MCF7 breast
MOLT-4 leukemia = tested on: MOLT-4 leukemia
UACC-62 melanoma = tested on: UACC-62 melanoma
KM12 colon = tested on: KM12 colon
NCI-H522 lung = tested on: NCI-H522 lung
SK-MEL-5 melanoma = tested on: SK-MEL-5 melanoma
SNB-19 CNS = tested on: SNB-19 CNS
A549 NSCLC = tested on: A549 NSCLC
MDA-MB-435 = tested on: MDA-MB-435
LOX IMVI melanoma = tested on: LOX IMVI melanoma
SN12C renal = tested on: SN12C renal
U251 CNS = tested on: U251 CNS
MALME-3M melanoma = tested on: MALME-3M melanoma
UO-31 renal = tested on: UO-31 renal
HT29 colon = tested on: HT29 colon
NCI-H23 lung = tested on: NCI-H23 lung
OVCAR-5 ovarian = tested on: OVCAR-5 ovarian
OVCAR-4 ovarian = tested on: OVCAR-4 ovarian
SF-539 CNS = tested on: SF-539 CNS
CAKI-1 renal = tested on: CAKI-1 renal
RPMI-8226 leukemia = tested on: RPMI-8226 leukemia
HCC-2998 colon = tested on: HCC-2998 colon
BT-549 breast = tested on: BT-549 breast
SK-MEL-2 melanoma = tested on: SK-MEL-2 melanoma
K-562 leukemia = tested on: K-562 leukemia

Structure (SMILES): O=C(CCCN1CCC2(CC1)C(=O)NC(=O)N2c1ccccc1)c1ccc(F)cc1
- TGI (HCT-116 colon): > 100 µM
- TGI (OVCAR-3 ovarian): > 100 µM
- TGI (DU-145 prostate): > 100 µM
- TGI (NCI-H226 lung): > 100 µM
- TGI (SNB-75 CNS): > 100 µM
- TGI (HL-60(TB) leukemia): > 100 µM
- TGI (UACC-257 melanoma): > 100 µM
- TGI (SK-MEL-28 melanoma): > 100 µM
- TGI (NCI-H460 lung): > 100 µM
- TGI (IGROV1 ovarian): > 100 µM
- TGI (786-0 renal): > 100 µM
- TGI (SW-620 colon): > 100 µM
- TGI (PC-3 prostate): > 100 µM
- TGI (HOP-92 NSCLC): > 100 µM
- TGI (HS 578T breast): > 100 µM
- TGI (CCRF-CEM leukemia): > 100 µM
- TGI (HOP-62 NSCLC): > 100 µM
- TGI (T-47D breast): > 100 µM
- TGI (M14 melanoma): > 100 µM
- TGI (TK-10 renal): > 100 µM
- TGI (MDA-MB-231 breast): > 100 µM
- TGI (A498 renal): > 100 µM
- TGI (HCT-15 colon): > 100 µM
- TGI (SR leukemia): > 100 µM
- TGI (ACHN renal): > 100 µM
- TGI (EKVX NSCLC): > 100 µM
- TGI (MDA-N): > 100 µM
- TGI (SF-295 CNS): > 100 µM
- TGI (COLO 205 colon): > 100 µM
- TGI (RXF 393 renal): > 100 µM
- TGI (NCI/ADR-RES ovarian): > 100 µM
- TGI (OVCAR-8 ovarian): > 100 µM
- TGI (SK-OV-3 ovarian): > 100 µM
- TGI (SF-268 CNS): > 100 µM
- TGI (MCF7 breast): > 100 µM
- TGI (MOLT-4 leukemia): > 100 µM
- TGI (UACC-62 melanoma): > 100 µM
- TGI (KM12 colon): > 100 µM
- TGI (NCI-H522 lung): > 100 µM
- TGI (SK-MEL-5 melanoma): > 100 µM
- TGI (SNB-19 CNS): > 100 µM
- TGI (A549 NSCLC): > 100 µM
- TGI (MDA-MB-435): > 100 µM
- TGI (LOX IMVI melanoma): > 100 µM
- TGI (SN12C renal): > 100 µM
- TGI (U251 CNS): > 100 µM
- TGI (MALME-3M melanoma): > 100 µM
- TGI (UO-31 renal): > 100 µM
- TGI (HT29 colon): > 100 µM
- TGI (NCI-H23 lung): > 100 µM
- TGI (OVCAR-5 ovarian): > 100 µM
- TGI (OVCAR-4 ovarian): > 100 µM
- TGI (SF-539 CNS): > 100 µM
- TGI (CAKI-1 renal): > 100 µM
- TGI (RPMI-8226 leukemia): > 100 µM
- TGI (HCC-2998 colon): > 100 µM
- TGI (BT-549 breast): > 100 µM
- TGI (SK-MEL-2 melanoma): > 100 µM

Structure (SMILES): O=C1C(C(O)(C(F)(F)Cl)C(F)(F)Cl)CCC1C(O)(C(F)(F)Cl)C(F)(F)Cl (stereo not given)
- TGI (HCT-116 colon): 5.71 µM
- TGI (OVCAR-3 ovarian): > 10 µM
- TGI (DU-145 prostate): > 10 µM
- TGI (NCI-H226 lung): 9.46 µM
- TGI (SNB-75 CNS): > 10 µM
- TGI (HL-60(TB) leukemia): > 10 µM
- TGI (UACC-257 melanoma): > 10 µM
- TGI (SK-MEL-28 melanoma): > 10 µM
- TGI (NCI-H460 lung): > 10 µM
- TGI (IGROV1 ovarian): > 10 µM
- TGI (786-0 renal): > 10 µM
- TGI (SW-620 colon): > 10 µM
- TGI (PC-3 prostate): > 10 µM
- TGI (HOP-92 NSCLC): 5.39 µM
- TGI (HS 578T breast): 5.44 µM
- TGI (HOP-62 NSCLC): > 10 µM
- TGI (T-47D breast): > 10 µM
- TGI (M14 melanoma): > 10 µM
- TGI (TK-10 renal): > 10 µM
- TGI (K-562 leukemia): > 10 µM
- TGI (MDA-MB-231 breast): > 10 µM
- TGI (A498 renal): > 10 µM
- TGI (HCT-15 colon): > 10 µM
- TGI (SR leukemia): > 10 µM
- TGI (ACHN renal): > 10 µM
- TGI (EKVX NSCLC): > 10 µM
- TGI (MDA-N): > 10 µM
- TGI (SF-295 CNS): 5.99 µM
- TGI (COLO 205 colon): > 10 µM
- TGI (RXF 393 renal): > 10 µM
- TGI (NCI/ADR-RES ovarian): > 10 µM
- TGI (OVCAR-8 ovarian): > 10 µM
- TGI (SK-OV-3 ovarian): > 10 µM
- TGI (SF-268 CNS): > 10 µM
- TGI (MCF7 breast): > 10 µM
- TGI (MOLT-4 leukemia): > 10 µM
- TGI (UACC-62 melanoma): > 10 µM
- TGI (KM12 colon): > 10 µM
- TGI (NCI-H522 lung): > 10 µM
- TGI (SK-MEL-5 melanoma): > 10 µM
- TGI (SNB-19 CNS): > 10 µM
- TGI (A549 NSCLC): > 10 µM
- TGI (MDA-MB-435): > 10 µM
- TGI (LOX IMVI melanoma): > 10 µM
- TGI (SN12C renal): > 10 µM
- TGI (U251 CNS): > 10 µM
- TGI (MALME-3M melanoma): > 10 µM
- TGI (HT29 colon): > 10 µM
- TGI (NCI-H23 lung): 6.19 µM
- TGI (OVCAR-5 ovarian): > 10 µM
- TGI (OVCAR-4 ovarian): > 10 µM
- TGI (SF-539 CNS): 8.56 µM
- TGI (CAKI-1 renal): 9.69 µM
- TGI (RPMI-8226 leukemia): > 10 µM
- TGI (HCC-2998 colon): > 10 µM
- TGI (BT-549 breast): > 10 µM
- TGI (SK-MEL-2 melanoma): 5.72 µM
